Measurements taken from ChEMBL document CHEMBL1201862, “PubChem BioAssay data set” (2004).
Active and inactive are the calls of the source.

Tests used:
[1] = molecular target: T1, Neuropeptides B/W receptor type 1 (Homo sapiens, UniProt P48145); assay: GPR7 antagonist potency, late-stage follow-up, cell-based, fluorescence, dose response (AID 463251); assay type: functional
T1 sequence (P48145 whole entry): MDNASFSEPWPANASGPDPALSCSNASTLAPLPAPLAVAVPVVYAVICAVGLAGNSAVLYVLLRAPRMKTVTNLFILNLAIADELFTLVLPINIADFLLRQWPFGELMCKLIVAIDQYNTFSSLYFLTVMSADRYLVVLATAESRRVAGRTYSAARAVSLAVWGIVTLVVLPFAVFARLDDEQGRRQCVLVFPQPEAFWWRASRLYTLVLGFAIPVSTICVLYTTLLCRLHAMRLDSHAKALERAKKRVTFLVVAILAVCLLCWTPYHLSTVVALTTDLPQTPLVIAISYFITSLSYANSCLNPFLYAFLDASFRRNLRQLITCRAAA

[2] = molecular target: Melanin-concentrating hormone receptor 1 (Homo sapiens, UniProt Q99705); assay: Late-stage fluorescence-based counterscreen for antagonists of the G-protein coupled receptor 7 (GPR7): cell-based dose response assay to identify antagonists of the melanin-concentrating hormone receptor 1 (MCHR1). [Related pubchem assays (depositor defined):AID1861, AID1880, AID1952, AID2148, AID2251, AID2257, AID485339]; assay type: functional;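 note: stimulated with 30 nM MCH peptide agonist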
[3] = molecular target: T2, CAAX prenyl protease 2 (Saccharomyces cerevisiae S288c, UniProt Q03530); assay type: biochemical
T2 sequence (Q03530 whole entry): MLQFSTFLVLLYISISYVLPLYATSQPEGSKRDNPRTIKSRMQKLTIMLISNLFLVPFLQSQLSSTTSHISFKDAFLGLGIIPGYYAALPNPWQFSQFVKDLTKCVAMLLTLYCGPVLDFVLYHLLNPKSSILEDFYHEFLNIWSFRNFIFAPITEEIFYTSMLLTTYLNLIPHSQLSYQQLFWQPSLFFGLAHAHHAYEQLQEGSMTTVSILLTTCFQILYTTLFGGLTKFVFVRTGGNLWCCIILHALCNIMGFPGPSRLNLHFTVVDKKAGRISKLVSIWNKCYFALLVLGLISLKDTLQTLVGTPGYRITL

[4] = molecular target: Trypsin (Sus scrofa, UniProt P00761); assay: porcine trypsin inhibitors, dose response, selectivity assay for Rce1 protease inhibitor project, biochemical, quenched peptide fluorescence, cherry-pick (AID 488789)
[5] = molecular target: Envelope glycoprotein gp160 (Human immunodeficiency virus 1, UniProt Q6QLK5); assay: inhibitors of HIV fusion peptide binding, primary screen, biochemical, uHTS, fluorescence dequenching (AID 1986)
[6] = molecular target: Luciferin 4-monooxygenase (Photinus pyralis, UniProt P08659); assay: In vitro luciferase assay using purified luciferase. [Related pubchem assays: 1299, 1270, 1295, 1375, 1287, 1281, 1293, 1291, 1289, 1280, 465, 1364, 1282, 1372, 1365, 1370, 1367, 1366, 1266, 1373, 1292, 1290, 1302, 1371, 1283, 1271, 1294, 1374, 1368, 1369 ]
[7] = tested on: HEK293; assay: PMA/Ionomycin induced NF-kB luciferase assay in 293- NF-kB-Luc stable cells. [Related pubchem assays: 1299, 1270, 1295, 1375, 1287, 1281, 1293, 1291, 1289, 1280, 465, 1364, 1282, 1372, 1365, 1370, 1367, 1366, 1269, 1373, 1292, 1290, 1302, 1371, 1283, 1271, 1294, 1374, 1368, 1369 ]; assay type: functional, cell-based; conditions: Homo sapiens
[8] = tested on: HEK293; assay: TNF Induced NF-kB Luciferase in 293-NF-kB-Luc Stable Cells. [Related pubchem assays: 1266, 1299, 1269, 1373, 1292, 1290, 1302, 1371, 1283, 1270, 1295, 1271, 1375, 1294, 1374, 1281, 1293, 1291, 1289, 1280, 465, 1368, 1364, 1282, 1372, 1365, 1369, 1370, 1367, 1366 ]; assay type: functional, cell-based; conditions: Homo sapiens
[9] = tested on: HEK293; assay: Cytotoxicity assay in HEK293 cells. [Related pubchem assays (depositor defined):AID1266, AID1269, AID1270, AID1271, AID1280, AID1281, AID1282, AID1283, AID1287, AID1289, AID1290, AID1291, AID1292, AID1293, AID1294, AID1295, AID1299, AID1302, AID1364, AID1365, AID1366, AID1367, AID1369, AID1370, AID1371, AID1372, AID1373, AID1374, AID1375, AID1384 …; assay type: functional, cell-based; conditions: Homo sapiens
[10] = molecular target: T3, Voltage-dependent T-type calcium channel subunit alpha-1H (Homo sapiens, UniProt O95180); assay type: functional
[11] = molecular target: T3, Voltage-dependent T-type calcium channel subunit alpha-1H; assay: Inhibitors of T-Type Calcium Channels. [Related pubchem assays (depositor defined):AID449739, AID463087, AID489005, AID493041, AID504579, AID504584, AID504619, AID504628]; assay type: functional
[12] = tested on: BJ; assay: cells; assay type: functional, cell-based; conditions: Homo sapiens
[13] = tested on: BJ; assay: cytotoxicity toward BJ-TERT-LT-ST fibroblasts, dose response, cell-based, RAS-independent, luminescence (AID 1935); assay type: functional; conditions: Homo sapiens;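 note: BJ fibroblasts immortalized with TERT plus LT and ST oncogenes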
[14] = cytotoxicity toward DRD oncogenic fibroblasts, dose response, cell-based, non-viral oncogenic, luminescence (AID 1934); assay type: functional; conditions: Homo sapiens
[15] = tested on: BJ; assay: cytotoxicity toward BJ-TERT fibroblasts, dose response, cell-based, RAS-independent, luminescence (AID 1933); assay type: functional; conditions: Homo sapiens
[16] = molecular target: T4, Protein phosphatase methylesterase 1 (Homo sapiens, UniProt Q9Y570); assay: PME-1 inhibitor potency by in-gel ABPP, dose response, selectivity assay for PME-1 inhibitor project, cell lysate, mouse brain cytosol, FP-rhodamine, panel member PME-1 Assay Panel member description: Inhibition of endogenously expressed PME-1 (AID 2366)
[17] = molecular target: T4, Protein phosphatase methylesterase 1; assay: Late stage results from the probe development effort to identify inhibitors of the protein methylesterase PME-1: Gel-based Activity-Based Protein Profiling (ABPP) IC50: Purified enzyme.; assay type: functional
[18] = molecular target: X-box-binding protein 1 (Homo sapiens, UniProt P17861); assay type: functional, Cricetulus griseus;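 note: confirmatory dose-response counter-screen serving a CHOP assay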
[19] = growth suppression of PTEN-null colon cells, dose response, cell-based, HCT116 PTEN knockout (AID 1047); assay type: functional;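 note: HCT116 colon tumor cells with PTEN knocked out; cells exposed to compound for 60 hours before readout; potency for loss of cell viability measured by luminescence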
[20] = growth suppression of beta-catenin-knockout colon cells, dose response, cell-based, HCT116, human colon tumor (AID 1045); assay type: functional;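 note: HCT116 colon tumor cells with beta catenin knocked out; cells exposed to compound for 60 hours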
[21] = molecular target: Serine hydrolase RBBP9 (Homo sapiens, UniProt O75884); assay: human RBBP9 inhibitor potency, late-stage follow-up, biochemical, gel-based ABPP, IC50, panel member Panel member description: RBBP9 IC50 Gel-based ABPP Assay (AID 2254)
[22] = tested on: HeLa; assay: HeLa cell cytotoxicity, dose response, cytotoxicity control, 24 h, cherry-picked samples (AID 504726); assay type: functional, cell-based; conditions: Homo sapiens;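 note: potency for cytotoxicity as loss of luminescence signal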
[23] = molecular target: FAD-linked sulfhydryl oxidase ALR (Homo sapiens, UniProt P55789); assay: inhibitors of human ALR sulfhydryl oxidase, dose response, biochemical, H2O2 detection, luminescence, cherry-pick (AID 493248)
[24] = inhibitors of intracellular T. cruzi replication, confirmation, NIH3T3 host cells, beta-gal luminescence (AID 2044); assay type: functional, cell-based;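 note: intracellular parasites grown in NIH/3T3 mouse fibroblasts as host cells; luminescent beta-galactosidase reporter signal from transgenic T. cruzi replicating inside host cells; inhibitors lower the luminescence signal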
[25] = cytotoxicity toward NIH3T3 fibroblasts, dose response, counter-screen, cell-based, ATP luminescence, mouse fibroblasts (AID 2010); assay type: functional;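 note: cells exposed to compound for about 90 hours before reading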
[26] = tested on: Salmon testes DNA; assay: DNA intercalators displacing acridine orange, dose response, artefact control for KSHV LANA DNA-binding inhibitor project, biochemical, fluorescence polarization, cherry-picked samples, set 2 (AID 504727); parameters: species or system Salmonidae

T3 sequence (O95180 whole entry): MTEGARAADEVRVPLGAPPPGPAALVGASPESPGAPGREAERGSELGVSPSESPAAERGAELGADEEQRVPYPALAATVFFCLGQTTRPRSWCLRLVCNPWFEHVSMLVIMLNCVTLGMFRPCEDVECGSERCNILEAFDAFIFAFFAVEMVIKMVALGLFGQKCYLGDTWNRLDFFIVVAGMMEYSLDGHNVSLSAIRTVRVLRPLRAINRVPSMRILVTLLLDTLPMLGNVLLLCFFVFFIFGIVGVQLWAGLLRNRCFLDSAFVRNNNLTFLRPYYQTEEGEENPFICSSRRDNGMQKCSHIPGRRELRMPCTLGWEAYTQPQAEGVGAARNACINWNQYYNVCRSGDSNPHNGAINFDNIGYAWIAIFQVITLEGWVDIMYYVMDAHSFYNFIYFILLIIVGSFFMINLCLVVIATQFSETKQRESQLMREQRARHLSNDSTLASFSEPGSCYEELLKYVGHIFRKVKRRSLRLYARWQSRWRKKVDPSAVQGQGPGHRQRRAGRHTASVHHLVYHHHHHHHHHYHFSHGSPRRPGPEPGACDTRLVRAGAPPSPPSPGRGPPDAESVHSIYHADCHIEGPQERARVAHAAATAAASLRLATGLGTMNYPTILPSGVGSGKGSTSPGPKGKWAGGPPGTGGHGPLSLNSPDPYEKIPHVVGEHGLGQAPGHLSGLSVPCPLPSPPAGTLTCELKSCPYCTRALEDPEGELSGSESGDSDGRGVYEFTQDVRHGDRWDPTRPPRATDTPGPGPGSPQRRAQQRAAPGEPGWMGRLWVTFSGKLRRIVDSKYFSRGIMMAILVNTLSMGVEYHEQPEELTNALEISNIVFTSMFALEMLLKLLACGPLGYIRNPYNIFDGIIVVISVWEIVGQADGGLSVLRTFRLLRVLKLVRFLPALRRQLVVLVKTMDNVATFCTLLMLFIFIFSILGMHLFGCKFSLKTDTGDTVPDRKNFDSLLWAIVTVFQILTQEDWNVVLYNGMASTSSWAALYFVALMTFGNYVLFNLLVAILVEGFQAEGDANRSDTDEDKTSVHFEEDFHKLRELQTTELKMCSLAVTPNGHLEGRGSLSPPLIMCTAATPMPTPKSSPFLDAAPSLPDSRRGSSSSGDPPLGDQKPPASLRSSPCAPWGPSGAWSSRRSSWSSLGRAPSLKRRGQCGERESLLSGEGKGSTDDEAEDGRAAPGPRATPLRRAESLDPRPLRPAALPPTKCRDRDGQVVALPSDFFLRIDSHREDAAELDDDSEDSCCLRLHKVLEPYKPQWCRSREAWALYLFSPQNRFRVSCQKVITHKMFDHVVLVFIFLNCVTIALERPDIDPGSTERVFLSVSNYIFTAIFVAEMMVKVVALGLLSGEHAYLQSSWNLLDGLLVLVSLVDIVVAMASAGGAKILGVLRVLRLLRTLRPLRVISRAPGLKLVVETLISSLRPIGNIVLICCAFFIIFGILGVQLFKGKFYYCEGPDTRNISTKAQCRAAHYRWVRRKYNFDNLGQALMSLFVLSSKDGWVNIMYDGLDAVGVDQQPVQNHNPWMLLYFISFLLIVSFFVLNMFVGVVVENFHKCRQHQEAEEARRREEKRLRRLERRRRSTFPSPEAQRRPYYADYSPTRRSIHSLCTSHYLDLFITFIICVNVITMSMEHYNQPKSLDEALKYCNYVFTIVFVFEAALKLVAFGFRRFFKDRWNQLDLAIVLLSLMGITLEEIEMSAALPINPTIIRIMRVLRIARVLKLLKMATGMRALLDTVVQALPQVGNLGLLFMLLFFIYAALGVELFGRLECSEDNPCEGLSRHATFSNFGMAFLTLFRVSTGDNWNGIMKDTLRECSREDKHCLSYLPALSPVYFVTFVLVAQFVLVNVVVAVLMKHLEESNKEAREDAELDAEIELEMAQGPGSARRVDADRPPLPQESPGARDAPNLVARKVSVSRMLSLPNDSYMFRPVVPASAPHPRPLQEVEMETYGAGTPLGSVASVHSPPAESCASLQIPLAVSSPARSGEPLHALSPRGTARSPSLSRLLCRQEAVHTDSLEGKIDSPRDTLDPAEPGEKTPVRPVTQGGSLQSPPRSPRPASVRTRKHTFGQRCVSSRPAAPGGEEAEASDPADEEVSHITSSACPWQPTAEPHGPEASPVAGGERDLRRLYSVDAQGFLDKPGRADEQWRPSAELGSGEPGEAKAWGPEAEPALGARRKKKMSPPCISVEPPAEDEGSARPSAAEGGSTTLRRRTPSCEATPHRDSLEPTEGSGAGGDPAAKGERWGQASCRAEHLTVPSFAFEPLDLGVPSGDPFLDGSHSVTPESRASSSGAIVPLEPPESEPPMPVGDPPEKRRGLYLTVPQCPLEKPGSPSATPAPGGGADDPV
T4 sequence (Q9Y570 whole entry): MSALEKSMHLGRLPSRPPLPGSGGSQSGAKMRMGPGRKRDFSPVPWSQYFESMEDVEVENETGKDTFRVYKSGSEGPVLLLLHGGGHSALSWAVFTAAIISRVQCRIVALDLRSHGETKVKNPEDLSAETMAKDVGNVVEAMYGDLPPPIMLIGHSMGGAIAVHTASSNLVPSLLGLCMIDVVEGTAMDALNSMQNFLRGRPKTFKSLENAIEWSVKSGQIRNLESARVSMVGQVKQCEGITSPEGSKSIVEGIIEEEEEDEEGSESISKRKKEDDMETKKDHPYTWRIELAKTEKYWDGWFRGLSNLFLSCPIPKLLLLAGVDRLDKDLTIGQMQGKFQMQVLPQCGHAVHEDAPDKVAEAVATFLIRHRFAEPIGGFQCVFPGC
Sequence of Trypsin (P00761 whole entry, the tested form may be a part): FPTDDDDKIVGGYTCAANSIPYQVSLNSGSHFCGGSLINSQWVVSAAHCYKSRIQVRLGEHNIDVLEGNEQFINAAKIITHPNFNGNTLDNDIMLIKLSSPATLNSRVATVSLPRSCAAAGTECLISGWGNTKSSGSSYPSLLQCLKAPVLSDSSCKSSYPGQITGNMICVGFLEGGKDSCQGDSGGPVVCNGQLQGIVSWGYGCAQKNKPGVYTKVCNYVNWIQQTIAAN
Sequence of FAD-linked sulfhydryl oxidase ALR (P55789 whole entry): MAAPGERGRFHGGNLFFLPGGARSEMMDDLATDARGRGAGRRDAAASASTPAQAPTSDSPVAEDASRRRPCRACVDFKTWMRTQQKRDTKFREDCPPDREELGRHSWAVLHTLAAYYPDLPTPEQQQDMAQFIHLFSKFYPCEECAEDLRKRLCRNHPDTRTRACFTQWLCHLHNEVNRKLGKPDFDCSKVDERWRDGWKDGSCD
Sequence of Luciferin 4-monooxygenase (P08659 whole entry): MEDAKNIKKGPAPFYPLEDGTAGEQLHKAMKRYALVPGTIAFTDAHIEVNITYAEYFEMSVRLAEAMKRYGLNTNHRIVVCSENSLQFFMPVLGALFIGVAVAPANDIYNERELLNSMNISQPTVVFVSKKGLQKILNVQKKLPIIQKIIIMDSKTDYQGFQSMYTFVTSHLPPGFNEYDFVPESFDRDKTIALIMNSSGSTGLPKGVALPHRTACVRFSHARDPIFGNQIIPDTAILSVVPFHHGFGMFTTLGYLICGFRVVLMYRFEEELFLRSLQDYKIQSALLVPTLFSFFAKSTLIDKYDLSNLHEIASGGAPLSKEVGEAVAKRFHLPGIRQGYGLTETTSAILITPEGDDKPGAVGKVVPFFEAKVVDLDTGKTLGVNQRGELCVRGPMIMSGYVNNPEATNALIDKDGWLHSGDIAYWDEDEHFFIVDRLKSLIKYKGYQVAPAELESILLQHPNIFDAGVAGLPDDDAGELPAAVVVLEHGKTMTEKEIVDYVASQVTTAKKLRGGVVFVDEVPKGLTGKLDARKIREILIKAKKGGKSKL
Sequence of Envelope glycoprotein gp160 (Q6QLK5 whole entry, the tested form may be a part): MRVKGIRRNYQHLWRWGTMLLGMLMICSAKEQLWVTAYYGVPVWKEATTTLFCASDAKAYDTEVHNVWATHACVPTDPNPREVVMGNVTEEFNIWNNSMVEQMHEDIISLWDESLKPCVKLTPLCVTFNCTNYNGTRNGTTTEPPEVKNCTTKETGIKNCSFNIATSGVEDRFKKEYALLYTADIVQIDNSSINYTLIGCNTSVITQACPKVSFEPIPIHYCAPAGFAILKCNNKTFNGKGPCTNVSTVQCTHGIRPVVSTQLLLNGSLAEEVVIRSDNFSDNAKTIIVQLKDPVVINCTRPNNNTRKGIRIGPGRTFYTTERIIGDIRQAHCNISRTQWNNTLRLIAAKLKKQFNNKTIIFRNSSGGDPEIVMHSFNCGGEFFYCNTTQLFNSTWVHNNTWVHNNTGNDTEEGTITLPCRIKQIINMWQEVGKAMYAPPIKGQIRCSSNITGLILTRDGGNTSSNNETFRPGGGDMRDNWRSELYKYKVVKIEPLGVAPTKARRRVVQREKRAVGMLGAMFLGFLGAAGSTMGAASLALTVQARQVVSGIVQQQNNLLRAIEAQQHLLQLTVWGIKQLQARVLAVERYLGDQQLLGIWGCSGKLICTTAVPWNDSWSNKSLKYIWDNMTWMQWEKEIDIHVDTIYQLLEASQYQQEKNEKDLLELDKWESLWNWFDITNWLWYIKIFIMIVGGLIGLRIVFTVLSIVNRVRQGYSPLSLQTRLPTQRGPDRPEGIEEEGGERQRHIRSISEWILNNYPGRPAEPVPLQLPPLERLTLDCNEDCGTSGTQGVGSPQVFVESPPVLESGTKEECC
Sequence of X-box-binding protein 1 (P17861 whole entry): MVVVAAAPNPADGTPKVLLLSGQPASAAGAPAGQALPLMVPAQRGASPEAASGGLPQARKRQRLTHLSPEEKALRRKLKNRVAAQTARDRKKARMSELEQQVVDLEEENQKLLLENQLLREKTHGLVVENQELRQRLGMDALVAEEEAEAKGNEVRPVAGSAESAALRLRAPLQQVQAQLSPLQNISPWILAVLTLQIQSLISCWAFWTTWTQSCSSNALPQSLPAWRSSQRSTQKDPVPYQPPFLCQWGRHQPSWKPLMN
Sequence of Serine hydrolase RBBP9 (O75884 whole entry): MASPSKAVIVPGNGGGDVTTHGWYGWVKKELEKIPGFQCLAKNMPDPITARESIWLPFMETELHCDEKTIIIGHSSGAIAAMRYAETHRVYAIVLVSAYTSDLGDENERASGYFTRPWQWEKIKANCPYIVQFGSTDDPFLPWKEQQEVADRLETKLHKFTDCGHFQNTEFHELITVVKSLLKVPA

In the case of `COC(=O)/C=C/c1cnn(-c2ccc(C(C)C)cc2)c(=O)c1Oc1ccc(OC)cc1`, the IC50 [1] is reported as > 20 µM (inactive) and the IC50 [2] is reported as > 20 µM (inactive).

In the case of `O=C1c2cccc(OCC(=O)N3N=C(c4cccs4)CC3c3ccc(F)cc3)c2CCN1Cc1cccnc1` (stereo unspecified), the AC50 [3] is reported as 13.1 µM (active) and the AC50 [4] is reported as 12.9 µM (active).

For `C/C(=C/CCC(C)C1CCC2(C)C3CCC4C(C)(C)C(=O)CCC4(C)C3=CCC12C)C(=O)O` (stereo unspecified), the IC50 [5] was > 99 µM (inactive).

With `COc1ccc2ccccc2c1C(=O)/C=C/c1cccnc1` the EC50 [6] was > 8 µM (not active), the EC50 [7] was 0.644 µM (active) and the EC50 [8] was 3.5 µM (active). The EC50 [9] was 8.48 µM (inactive).

In the case of `Clc1ccc(Cn2ncc3c(NCc4ccco4)ncnc32)c(Cl)c1`, the EC50 [10] is reported as 1.99 µM (active), the EC50 [11] is reported as 9.5 µM (active) and the EC50 [12] is reported as > 150 µM (not active). The EC50 [13] was > 150 µM (inconclusive), the EC50 [14] was 12.3 µM (inconclusive) and the EC50 [15] was 9.56 µM (inconclusive).

In the case of `CS(=O)(=O)/C(C#N)=C/c1ccc[nH]1`, the IC50 [16] is reported as > 20 µM (inactive) and the IC50 [17] is reported as > 20 µM (not active).

In the case of `NC(N)=C1C(=O)N(C2CCCCC2)C(=O)N(C2CCCCC2)C1=O`, the “Absolute IC50 (XBP1)” value [18] is reported as 10 µM, the EC50 [19] is reported as 24 µM (active) and the EC50 [20] is reported as 25.5 µM (active).

With `C/C(=N\OC(=O)c1ccccc1)c1nccs1` the IC50 [21] was 5 µM (active).

In the case of `NNc1nc(-c2ccccc2)cs1`, the AC50 [22] is reported as > 350 µM (inactive), the AC50 [23] is reported as 5.04 µM (active) and the EC50 [24] is reported as 4.06 µM (active). For the same compound, the EC50 [25] was 4.75 µM (active) and the AC50 [26] was 58.7 µM (active).
